The target in assay [1] is T1, Endothelin receptor type B (Sus scrofa, UniProt P35463).
T1 sequence (P35463 whole entry): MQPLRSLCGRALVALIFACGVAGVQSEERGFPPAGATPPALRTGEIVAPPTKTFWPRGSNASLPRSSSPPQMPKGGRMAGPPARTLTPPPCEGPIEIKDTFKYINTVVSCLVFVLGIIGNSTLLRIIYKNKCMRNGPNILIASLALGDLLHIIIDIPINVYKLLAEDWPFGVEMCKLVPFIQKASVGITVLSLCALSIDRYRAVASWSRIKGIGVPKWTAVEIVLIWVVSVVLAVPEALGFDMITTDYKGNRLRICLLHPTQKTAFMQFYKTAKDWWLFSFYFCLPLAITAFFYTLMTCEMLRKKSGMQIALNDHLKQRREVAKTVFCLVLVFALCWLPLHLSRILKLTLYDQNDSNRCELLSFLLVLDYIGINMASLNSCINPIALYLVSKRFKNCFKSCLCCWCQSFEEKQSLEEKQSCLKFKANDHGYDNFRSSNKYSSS
Kind of assay: Inhibitory activity was evaluated against ET- B Binding to Endothelin B receptor from porcine cerebellar membranes.

The target in assay [2] is T2, Endothelin-1 receptor (Rattus norvegicus, UniProt P26684).
T2 sequence (P26684 whole entry): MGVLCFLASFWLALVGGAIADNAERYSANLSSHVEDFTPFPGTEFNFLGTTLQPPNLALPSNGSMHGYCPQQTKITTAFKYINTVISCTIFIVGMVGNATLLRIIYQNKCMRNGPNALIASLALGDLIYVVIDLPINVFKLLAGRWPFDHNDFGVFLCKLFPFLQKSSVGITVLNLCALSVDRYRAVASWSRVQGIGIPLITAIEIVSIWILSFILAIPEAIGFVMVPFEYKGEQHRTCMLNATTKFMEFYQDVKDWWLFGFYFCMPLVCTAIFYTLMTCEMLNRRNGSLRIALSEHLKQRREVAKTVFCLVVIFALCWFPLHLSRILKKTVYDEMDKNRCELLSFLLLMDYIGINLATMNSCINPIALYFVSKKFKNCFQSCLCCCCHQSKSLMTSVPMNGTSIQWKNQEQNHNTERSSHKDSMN
Put plainly: Inhibitory activity was evaluated against ET- A Binding to Endothelin A receptor in MMQ cell homogenates. The format is cell-free.

Broadly, the IC50 is the concentration needed to halve the response being measured. Read a low IC50 as higher potency. For the molecule `Cc1oc([C@@H](Cc2c[nH]c3ccccc23)NC(=O)[C@H](CC(C)C)NS(=O)(=O)N2CCCCCC2)nc1C(=O)O`, the half-maximal inhibitory concentration (IC50) in assay [1] and in assay [2] was over 100 µM in each case.
As to `Cc1oc([C@@H](Cc2cn(C)c3ccccc23)NC(=O)[C@H](CC(C)C)NC(=O)NC2CCCCC2)nc1C(=O)O`, the results for the IC50 in assay [1] and in assay [2] were over 100 µM and 0.22 µM, respectively.
For `CCN(CC)C(=O)N[C@@H](CC(C)C)C(=O)N[C@H](Cc1c[nH]c2ccccc12)c1nc(C(=O)O)c(C)o1` the same measures were over 100 µM and 3 µM.
Taken in the same sequence, the figures for `Cc1oc([C@@H](Cc2cn(C)c3ccccc23)NC(=O)[C@H](CC(C)C)NC(=O)NC2CCCC2)nc1C(=O)O` were 99 µM and 0.3 µM.
For `CCN(CC)C(=O)N[C@@H](CC(C)C)C(=O)N[C@H](Cc1c[nH]c2ccccc12)c1nc(C(=O)O)c(C)[nH]1` the same measures were over 100 µM and 1 µM.
For `Cc1oc([C@@H](Cc2cn(C)c3ccccc23)NC(=O)[C@H](CC(C)C)NC(=O)Nc2c(F)c(F)c(F)c(F)c2F)nc1C(=O)O`, the figures for the IC50 in assay [1] and in assay [2] were over 100 µM and 3.55 µM, respectively.
Turning to `Cc1[nH]c([C@@H](Cc2cn(C)c3ccccc23)NC(=O)[C@H](CC(C)C)NC(=O)NC2CCC(C)CC2)nc1C(=O)O` (stereo partly specified), the values for the half-inhibitory concentration (IC50) in assay [1] and in assay [2] were 80 µM and 0.141 µM, respectively.
In the case of `Cc1oc([C@@H](Cc2cn(C)c3ccccc23)NC(=O)[C@H](CC(C)C)NC(=O)NC2CCC(O)CC2)nc1C(=O)O` (stereo partly specified), the IC50 in assay [1] is over 100 µM; in assay [2] it was 2.52 µM.
Turning to `Cc1oc([C@@H](Cc2cn(C)c3ccccc23)NC(=O)[C@H](CC(C)C)NC(=O)N2CCCCCC2)nc1C(=O)O`, the values for the IC50 in assay [1] and in assay [2] were over 100 µM and 0.62 µM, respectively.
As to `CCn1cc(C[C@@H](NC(=O)[C@H](CC(C)C)NC(=O)NC2CCCCC2)c2nc(C(=O)O)c(C)o2)c2ccccc21`, in assay [1], the IC50 is over 100 µM.
For `Cc1oc([C@@H](Cc2cn(C)c3ccccc23)NC(=O)[C@H](CC(C)C)NC(=O)NC2CCCc3ccccc32)nc1C(=O)O` (stereo partly specified), the results for the IC50 in assay [1] and in assay [2] were 48 µM and 0.23 µM, respectively.
For `Cc1oc([C@@H](Cc2cn(C)c3ccccc23)NC(=O)[C@H](CC(C)C)NC(=O)Nc2ccc(F)cc2)nc1C(=O)O` the same measures were over 100 µM and 1.9 µM.
Taken in the same sequence, the figures for `COC(=O)C1(NC(=O)N[C@@H](CC(C)C)C(=O)N[C@H](Cc2cn(C)c3ccccc23)c2nc(C(=O)O)c(C)o2)CCCCC1` were over 90 µM and 0.12 µM.
On to `Cc1oc([C@@H](Cc2cn(C)c3ccccc23)NC(=O)[C@H](CC(C)C)NC(=O)NC2CCCCC2C)nc1C(=O)O` (stereo partly specified), for which the concentration for half-maximal inhibition (IC50) in assay [1] was over 100 µM; in assay [2], 0.65 µM.
Turning to `Cc1[nH]c([C@@H](Cc2c[nH]c3ccccc23)NC(=O)[C@H](CC(C)C)NC(=O)NC2CCCCC2)nc1C(=O)O`, the IC50 is over 100 µM in assay [1] and 0.075 µM in assay [2].
Consider `Cc1oc([C@@H](Cc2cn(C)c3ccccc23)NC(=O)[C@H](CC(C)C)NC(=O)Nc2ccccn2)nc1C(=O)O`, for which the figures for the 50% inhibitory concentration (IC50) in assay [1] and in assay [2] were 66 µM and 0.074 µM, respectively.
`Cc1oc([C@@H](Cc2c[nH]c3ccccc23)NC(=O)[C@H](CC(C)C)NC(=O)N2CCCCCC2)nc1C(=O)NO`: the IC50 in assay [1] was over 100 µM; in assay [2], 2.9 µM.
As to `Cc1oc([C@@H](Cc2c[nH]c3ccccc23)NC(=O)[C@H](CC(C)C)NC(=O)NC2CCCCC2)nc1C(=O)O`, the IC50 in assay [1] was over 100 µM.
With `Cc1oc([C@@H](Cc2cn(C)c3ccccc23)NC(=O)[C@H](CC(C)C)NC(=O)NC2C3CC4CC(C3)CC2C4)nc1C(=O)O` (stereo partly specified), the IC50 in assay [1] was determined as 26 µM; in assay [2], 0.44 µM.
Consider `Cc1[nH]c([C@@H](Cc2c[nH]c3ccccc23)NC(=O)[C@H](CC(C)C)NC(=O)NCc2ccccc2)nc1C(=O)O`, for which the IC50 was over 100 µM in assay [1] and 2.1 µM in assay [2].
For `Cc1oc([C@@H](Cc2cn(C)c3ccccc23)NC(=O)[C@H](CC(C)C)NC(=O)NC2CCCCCC2)nc1C(=O)O` the same measures were 75 µM and 0.4 µM.
Taken in the same sequence, the figures for `Cc1oc([C@@H](Cc2c[nH]c3ccccc23)NC(=O)[C@H](CC(C)C)NC(=O)N2CCCCCC2)nc1C(=O)NCC(=O)O` were over 100 µM and 1.9 µM.
Taken in the same sequence, the figures for `Cc1oc([C@@H](Cc2cn(C)c3ccccc23)NC(=O)[C@H](CC(C)C)NC(=O)Nc2cccc(F)c2)nc1C(=O)O` were 55 µM and 0.066 µM.
Consider `Cc1oc([C@@H](Cc2cn(C)c3ccccc23)NC(=O)[C@H](CC(C)C)NC(=O)NC2CCC(C)CC2)nc1C(=O)O` (stereo partly specified), for which the IC50 in assay [1] was over 100 µM.
With `Cc1c(C(=O)O)nc([C@@H](Cc2c[nH]c3ccccc23)NC(=O)[C@H](CC(C)C)NC(=O)N2CCCCCC2)n1Cc1ccccc1`, the IC50 in assay [1] was over 100 µM.
On the same count and under the same terms, to `Cc1[nH]c([C@@H](Cc2cn(C)c3ccccc23)NC(=O)[C@H](CC(C)C)NC(=O)N2CCCCCC2)nc1C(=O)O` belongs over 100 µM.
As for `Cc1oc([C@@H](Cc2cn(C)c3ccccc23)NC(=O)[C@H](CC(C)C)NC(=O)NC2CC3CCC2C3)nc1C(=O)O` (stereo in doubt; 15p), the IC50 was 26 µM in assay [1] and 0.45 µM in assay [2].
Taken in the same sequence, the figures for `CNC(=O)c1nc([C@@H](Cc2c[nH]c3ccccc23)NC(=O)[C@H](CC(C)C)NC(=O)N2CCCCCC2)oc1C` were 65 µM and 3 µM.
Consider `Cc1oc([C@@H](Cc2cn(C)c3ccccc23)NC(=O)[C@H](CC(C)C)NC(=O)NC2CCCC(C)C2)nc1C(=O)O` (stereo partly specified), for which the IC50 was over 100 µM in assay [1] and 0.96 µM in assay [2].
`CCOC(=O)c1nc([C@@H](Cc2c[nH]c3ccccc23)NC(=O)[C@H](CC(C)C)NC(=O)N2CCCCCC2)oc1C`: in assay [1], the IC50 stood at 43 µM.
On to `Cc1oc([C@@H](Cc2c[nH]c3ccccc23)NC(=O)[C@H](CC(C)C)NC(=O)N2CCCCCC2)nc1CC(=O)O`, for which the results for the IC50 in assay [1] and in assay [2] were over 100 µM and 9.6 µM, respectively.
As to `CCn1cc(C[C@@H](NC(=O)[C@H](CC(C)C)NC(=O)NC2CCCCC2)c2nc(C(=O)O)c(C)[nH]2)c2ccccc21`, the half-inhibitory concentration (IC50) in assay [1] was determined as 55 µM; in assay [2] it was 0.73 µM.
As for `Cc1[nH]c([C@@H](Cc2c[nH]c3ccccc23)NC(=O)[C@H](CC(C)C)NS(=O)(=O)N2CCCCCC2)nc1C(=O)O`, the concentration for half-maximal inhibition (IC50) in assay [1] and in assay [2] was over 100 µM each time.
Turning to `Cc1c(C(=O)O)nc([C@@H](Cc2c[nH]c3ccccc23)NC(=O)[C@H](CC(C)C)NC(=O)N2CCCCCC2)n1C`, the IC50 in assay [1] is over 100 µM.
`Cc1oc([C@@H](Cc2cn(C)c3ccccc23)NC(=O)[C@H](CC(C)C)NC(=O)NC2(C)CCCCC2)nc1C(=O)O`: the IC50 in assay [1] stood at 56 µM; in assay [2], 0.2 µM.
For `Cc1oc([C@@H](Cc2c[nH]c3ccccc23)NC(=O)[C@H](CC(C)C)NC(=O)NCc2ccccc2)nc1C(=O)O` the same measures were 96 µM and 8.7 µM.
On to `Cc1[nH]c([C@@H](Cc2cn(C)c3ccccc23)NC(=O)[C@H](CC(C)C)NC(=O)NC2CCC(O)CC2)nc1C(=O)O` (stereo partly specified), for which the half-maximal inhibitory concentration (IC50) in assay [1] was over 100 µM; in assay [2], 0.11 µM.
Take `Cc1oc([C@@H](Cc2cn(C)c3ccccc23)NC(=O)[C@H](CC(C)C)NC(=O)n2ccc3ccccc32)nc1C(=O)O`: the IC50 was determined as 12 µM in assay [1] and 0.058 µM in assay [2].
Taken in the same sequence, the figures for `Cc1oc([C@@H](Cc2cn(C)c3ccccc23)NC(=O)[C@H](CC(C)C)NC(=O)NC2CC3CCC2C3)nc1C(=O)O` (stereo in doubt; 15o) were 67 µM and 0.8 µM.

The values above are taken from ChEMBL document CHEMBL1129498, “Azole endothelin antagonists. 2. Structure-activity studies” (J Med Chem, 1996).
